Data taken from patent US20200002354A1, “HEXAHYDROPYRAZINOBENZ- OR -PYRIDO-OXAZEPINES CARRYING AN OXYGEN-CONTAINING SUBSTITUENT AND USE THEREOF IN THE TREATMENT OF 5-HT2C-DEPENDENT DISORDERS” (AbbVie Deutschland GmbH & Co. KG, priority 2015, published 2020).
pEC50: −log10 of the molar value.

Experiments:
[1] = Metabolic stability in human liver microsomes, unbound intrinsic clearance; type: in vitro ADME; conditions: liver microsomes, pH 7.4; unbound intrinsic clearance (human); Clint unbound = Cl int/fu mic; read-out: Cl int, mic unb. (h)
Experimental: Samples of the tested compounds (0.5 μM) were preincubated together with human liver microsomes (0.25 mg of microsomal protein/mL) in 0.05 M potassium phosphate buffer of pH 7.4 in microtiter plates at 37° C. for 5 minutes. The reaction was started by adding NADPH (1.0 mM). After 0, 5, 10, 15, 20 and 30 minutes, an aliquot was removed, the reaction was cooled and stopped by adding twice the amount of quench solution consisting of acetonitrile/methanol 1:1, and containing 0.2 μM carbutamide as internal standard. The samples were frozen until analyzed. The remaining concentration of undegraded test substance was determined by liquid chromatography-tandem mass spectrometry (LC-MS/MS). The half-life (t1/2) was determined from the gradient of the ratio of the signal of (test substance/internal standard)/unit time plot, allowing the calculation of the half-life of the test substance, assuming first order kinetics, from the decrease in the concentration of the compound with time. The microsomal clearance (mClint) was calculated as follows: mClint=((ln(2)/t ½)/Microsomal Protein Concentration (mg/ml))*1000, leading to the unit of uL/min/mg. The scaled clearance (mClin_scaled) was calculated as mCLint_scaled=m CLint*(Microsomal Yield (mg/kg BW))/1000000*60, leading to the units L/h/kg. The Microsomal Yield is defined by the specifics of the used microsomes. Calculations were modified from references: Di, The Society for Biomolecular Screening, 2003, 453-462; Obach, D M D, 1999 vol 27. N 11, 1350-1359.
Calculation of Unbound Intrinsic Clearance
C1int unbound=C1 int/fu mic

[2] = target: T1, 5-HT2C receptor (Homo sapiens, UniProt P28335); assay: Human 5-HT2C functional assay (beta-arrestin2 recruitment, U2OS_HTR2C_β-Arrestin cells); type: cell-based; conditions: for pEC50: Potency (EC50 5-HT2C) in functional assay, agonism, read-out: EC50 5-HT2C; for Emax: relative efficacy vs maximal effect induced by 5-HT (defined as 100%)
T1 construct: host or cells: U2OS
T1 sequence (P28335 33-458): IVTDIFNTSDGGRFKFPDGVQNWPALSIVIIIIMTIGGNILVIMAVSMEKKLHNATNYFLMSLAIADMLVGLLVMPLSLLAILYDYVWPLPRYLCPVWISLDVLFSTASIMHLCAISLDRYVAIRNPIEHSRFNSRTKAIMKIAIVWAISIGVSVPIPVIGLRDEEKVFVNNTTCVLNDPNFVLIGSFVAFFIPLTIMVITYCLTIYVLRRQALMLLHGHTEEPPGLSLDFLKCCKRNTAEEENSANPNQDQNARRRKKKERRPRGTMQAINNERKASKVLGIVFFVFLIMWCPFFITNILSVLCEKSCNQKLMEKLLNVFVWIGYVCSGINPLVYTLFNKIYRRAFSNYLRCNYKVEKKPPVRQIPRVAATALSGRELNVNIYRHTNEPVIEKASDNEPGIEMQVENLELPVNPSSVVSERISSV
T1 sequence (P32121 whole entry partner): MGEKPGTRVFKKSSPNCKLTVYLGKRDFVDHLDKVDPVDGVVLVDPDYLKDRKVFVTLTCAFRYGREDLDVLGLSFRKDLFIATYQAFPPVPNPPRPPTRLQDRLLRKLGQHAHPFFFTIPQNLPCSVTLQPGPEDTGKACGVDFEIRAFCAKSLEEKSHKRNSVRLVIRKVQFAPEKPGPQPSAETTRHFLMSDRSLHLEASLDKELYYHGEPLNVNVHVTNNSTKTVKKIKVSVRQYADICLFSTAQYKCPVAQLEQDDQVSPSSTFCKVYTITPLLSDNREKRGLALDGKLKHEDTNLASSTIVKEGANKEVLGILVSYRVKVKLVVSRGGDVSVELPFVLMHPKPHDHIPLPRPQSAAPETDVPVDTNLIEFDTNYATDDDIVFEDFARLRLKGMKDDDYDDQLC
Experimental: 1. Human 5-HT2C Functional Assay
The functional activity of compounds of formula I was assayed by incubation with U2OS_HTR2C_β-Arrestin cells (DiscoverX, 93-0289C3) to induce beta-arrestin2 recruitment to the 5-HT2C receptor. The agonist-induced recruitment and proximity of the receptor and beta-arrestin2 leads to complementation and formation of active β-galactosidase. The enzyme complementation results in enzyme activity, which is measured following the termination of the agonist incubation using DiscoveRx's detection reagent, which contains a chemiluminescent substrate which produces a high intensity signal. Cells were plated and a medium-change to a 1% serum containing medium was performed 24 h later. The next day, test compounds were added and incubated for 1.5 h before addition of detection reagent.
The response produced was measured and compared with the response produced by 10 [mu]M 5-HT or the maximal effect induced by 5-HT (defined as 100%) to which it was expressed as a percentage response (relative efficacy).

[3] = target: T2, human 5-HT2A receptor (Homo sapiens, UniProt P28223); assay: Human 5-HT2A functional assay (calcium mobilisation in CHO-K1 cells, FLIPR); type: cell-based; conditions: based on agonism: EC50 5-HT2A/EC50 5-HT2C
T2 construct: expressed in transfected cells; host or cells: CHO-K1
T2 sequence (P28223 whole entry): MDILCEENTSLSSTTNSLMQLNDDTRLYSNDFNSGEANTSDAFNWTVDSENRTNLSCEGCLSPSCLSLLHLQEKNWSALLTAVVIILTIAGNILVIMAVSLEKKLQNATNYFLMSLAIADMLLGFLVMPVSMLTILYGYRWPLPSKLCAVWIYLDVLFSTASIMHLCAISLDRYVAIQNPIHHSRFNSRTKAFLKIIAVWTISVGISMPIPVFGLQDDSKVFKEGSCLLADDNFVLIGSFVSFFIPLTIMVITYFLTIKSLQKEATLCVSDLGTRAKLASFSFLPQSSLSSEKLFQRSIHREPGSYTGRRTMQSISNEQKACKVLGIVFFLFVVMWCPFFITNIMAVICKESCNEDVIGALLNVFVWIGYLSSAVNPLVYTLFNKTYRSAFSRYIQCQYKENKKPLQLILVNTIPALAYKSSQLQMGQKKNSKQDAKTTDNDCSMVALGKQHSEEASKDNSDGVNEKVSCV
Experimental: 2. Human 5-HT2A Functional Assay
Functional activity on the 5-HT2A receptor was determined by testing the effect of the compounds I on calcium mobilisation in CHO-K1 cells, stably transfected with human 5-HT2A receptor. Cells were seeded into sterile black 384-well plates with clear bottom at 25,000 cells/well in a volume of 25 μl and grown for 5-6 hours at 37° C., in 5% CO2 in tissue culture medium (“Ultra CHO” by LONZA), containing 1% dialysed FCS and 50 μg/ml gentamicin (Invitrogen). After this incubation, medium was replaced by a serum free version of the same tissue culture medium followed by incubation overnight at 37° C. and in 5% CO2. Cells were then loaded with a fluorescent calcium-sensitive dye in the presence of 0.07% probenecid for an hour at 37° C., according to the manufacturer's protocol (Ca5-Assay Kit, Molecular Devices), followed by an additional 60 min incubation at room temperature. Serial compound dilutions (final concentrations of 10^−10 to 10^−5M, prepared in HBSS+50 mM HEPES) were first added to the cells alone (“first addition” to assess agonism on the 5-HT2A receptor), then after 8 min, serotonin was added to the same wells at a final concentration of 3×10^−8 M (“second addition” to see potential antagonistic effect) and the maximal calcium response was determined using a FLIPR® Tetra instrument (Molecular Devices) in each of the two steps. The relative efficacy of the compounds was calculated as a percentage of the maximal effect induced by serotonin alone (defined as 100%). To determine EC50/IC50 values, concentration-response curves were fitted using a four-parameter logistic equation (IDBS Biobookml). Kb values were calculated from IC50 values, according to Cheng & Prusoff

[4] = target: T3, human 5-HT2B receptor (Homo sapiens, UniProt P41595); assay: Human 5-HT2B functional assay (calcium mobilisation in CHO-FlpIn cells, FLIPR); type: cell-based; conditions: based on agonism: EC50 5-HT2B/EC50 5-HT2C
T3 construct: expressed in transfected cells; host or cells: CHO-FlpIn
T3 sequence (P41595 whole entry): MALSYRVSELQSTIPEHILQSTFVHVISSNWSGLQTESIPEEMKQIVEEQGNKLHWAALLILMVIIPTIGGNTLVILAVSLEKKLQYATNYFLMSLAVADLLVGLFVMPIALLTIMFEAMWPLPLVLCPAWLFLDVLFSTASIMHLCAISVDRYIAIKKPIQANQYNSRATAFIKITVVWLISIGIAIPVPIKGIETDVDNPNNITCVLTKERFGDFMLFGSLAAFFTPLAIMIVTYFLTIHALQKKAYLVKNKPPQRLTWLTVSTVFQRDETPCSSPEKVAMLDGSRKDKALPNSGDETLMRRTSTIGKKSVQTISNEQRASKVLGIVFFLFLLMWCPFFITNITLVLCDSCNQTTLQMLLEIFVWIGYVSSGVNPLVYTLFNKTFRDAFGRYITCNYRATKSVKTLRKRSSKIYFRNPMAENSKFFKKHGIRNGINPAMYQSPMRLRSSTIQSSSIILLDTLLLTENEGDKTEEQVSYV
Experimental: 3. Human 5-HT2B Functional Assay
Functional activity on the 5-HT2B receptor was determined by testing the effect of the compounds I on calcium mobilisation in CHO-FlpIn cells, stably transfected with human 5-HT2B receptor. Cells were seeded into sterile black 384-well plates with clear bottom at 30,000 cells/well in a volume of 25 μl and grown overnight at 37° C., in 5% CO2 in tissue culture medium (“CHO-S-SFM II” by Invitrogen), containing 1% dialysed FCS and 50 μg/ml gentamicin (Invitrogen). On the next morning, medium was replaced by a serum free version of the same tissue culture medium for a further incubation for 4 hours at 37° C. and in 5% CO2. Cells were then loaded with a fluorescent calcium-sensitive dye in the presence of 0.07% probenecid for an hour at 37° C., according to the manufacturer's protocol (Ca5-Assay Kit, Molecular Devices), followed by an additional 60 min incubation at room temperature. Serial compound dilutions (final concentrations of 10^−10 to 10^−5M, prepared in HBSS+50 mM HEPES) were first added to the cells alone (“first addition” to assess agonism on the 5-HT2B receptor), then after 8 min, serotonin was added to the same wells at a final concentration of 10^−8 M (“second addition” to see potential antagonistic effect) and the maximal calcium response was determined using a FLIPR® Tetra instrument (Molecular Devices) in each of the two steps. The relative efficacy of the compounds was calculated as a percentage of the maximal effect induced by serotonin alone (defined as 100%). To determine EC50/IC50 values, concentration-response curves were fitted using a four-parameter logistic equation (IDBS Biobookml). Kb values were calculated from IC50 values, according to Cheng & Prusoff

COC[C@@H]1C[C@@H]2CNCCN2c2c(F)c(F)cc(F)c2O1.O=C(O)/C=C/C(=O)O [Example 18, (4aR,6S)-8,10,11-Trifluoro-6-(methoxymethyl)-2,3,4,4a,5,6-hexahydro-1H-pyrazino[2,1-d][1,5]benzoxazepine; fumaric acid]
CLint scaled at 0.5 μM [1]: < 83.3 mL/min/kg
pEC50 [2]: 6.70 to 7.70
Emax [2]: > 70%
Selectivity over 5-HT2A [3]: +++ (>100)
Selectivity over 5-HT2B [4]: +++ (>100)

COC[C@@H]1C[C@@H]2CNCCN2c2cccc(Cl)c2O1.Cl [Example 1, (4aR,6S)-8-Chloro-6-(methoxymethyl)-2,3,4,4a,5,6-hexahydro-1H-pyrazino[2,1-d][1,5]benzoxazepine hydrochloride]
CLint scaled at 0.5 μM [1]: < 83.3 mL/min/kg
pEC50 [2]: > 7.70
Emax [2]: > 70%
Selectivity over 5-HT2A [3]: +++ (>100)
Selectivity over 5-HT2B [4]: +++ (>100)

COC[C@@H]1C[C@@H]2CNCCN2c2ccc(F)c(Cl)c2O1.Cl [Example 5, (4aR,6S)-8-Chloro-9-fluoro-6-(methoxymethyl)-2,3,4,4a,5,6-hexahydro-1H-pyrazino[2,1-d][1,5]benzoxazepine hydrochloride]
CLint scaled at 0.5 μM [1]: < 83.3 mL/min/kg
pEC50 [2]: > 7.70
Emax [2]: > 70%
Selectivity over 5-HT2A [3]: +++ (>100)
Selectivity over 5-HT2B [4]: + (from 10 to 30)

COC[C@H]1C[C@@H]2CNCCN2c2cc(F)cc(Cl)c2O1.Cl [Example 35, (4aR,6R)-8-Chloro-10-fluoro-6-(methoxymethyl)-2,3,4,4a,5,6-hexahydro-1H-pyrazino[2,1-d][1,5]benzoxazepine hydrochloride]
CLint scaled at 0.5 μM [1]: < 83.3 mL/min/kg
pEC50 [2]: 6.70 to 7.70
Emax [2]: > 70%
Selectivity over 5-HT2A [3]: ++ (from >30 to 100)
Selectivity over 5-HT2B [4]: + (from 10 to 30)

COC[C@@H]1C[C@@H]2CNCCN2c2cc(C(F)(F)F)cc(Cl)c2O1 [Example 45, (4aR,6S)-8-Chloro-6-(methoxymethyl)-10-(trifluoromethyl)-2,3,4,4a,5,6-hexahydro-1H-pyrazino[2,1-d][1,5]benzoxazepine]
CLint scaled at 0.5 μM [1]: 83.3 to 833 mL/min/kg
pEC50 [2]: 6.70 to 7.70
Emax [2]: > 70%
Selectivity over 5-HT2A [3]: +++ (>100)
Selectivity over 5-HT2B [4]: +++ (>100)

Cc1ccc2c(c1F)O[C@H](CO)C[C@@H]1CNCCN21 [Example 39, [(4aR,6S)-8-Fluoro-9-methyl-2,3,4,4a,5,6-hexahydro-1H-pyrazino[2,1-d][1,5]benzoxazepin-6-yl]methanol]
CLint scaled at 0.5 μM [1]: < 83.3 mL/min/kg
pEC50 [2]: 6.70 to 7.70
Emax [2]: 50 to 70%
Selectivity over 5-HT2A [3]: ++ (from >30 to 100)
Selectivity over 5-HT2B [4]: ++ (from >30 to 100)

COC[C@@H]1C[C@@H]2CNCCN2c2c(ccc(F)c2F)O1.Cl [Example 21, (4aR,6S)-10,11-Difluoro-6-(methoxymethyl)-2,3,4,4a,5,6-hexahydro-1H-pyrazino[2,1-d][1,5]benzoxazepine hydrochloride]
CLint scaled at 0.5 μM [1]: < 83.3 mL/min/kg
pEC50 [2]: 6.70 to 7.70
Emax [2]: 30 to 50%
Selectivity over 5-HT2A [3]: ++ (from >30 to 100)
Selectivity over 5-HT2B [4]: ++ (from >30 to 100)

COC[C@@H]1C[C@@H]2CNCCN2c2cc(F)c(F)c(Cl)c2O1.Cl [Example 38, (4aR,6S)-8-Chloro-9,10-difluoro-6-(methoxymethyl)-2,3,4,4a,5,6-hexahydro-1H-pyrazino[2,1-d][1,5]benzoxazepine hydrochloride]
CLint scaled at 0.5 μM [1]: < 83.3 mL/min/kg
pEC50 [2]: > 7.70
Emax [2]: > 70%
Selectivity over 5-HT2A [3]: ++ (from >30 to 100)
Selectivity over 5-HT2B [4]: ++ (from >30 to 100)

COC[C@@H]1C[C@@H]2CNCCN2c2cc(F)ccc2O1.Cl [Example 8, (4aR,6S)-10-Fluoro-6-(methoxymethyl)-2,3,4,4a,5,6-hexahydro-1H-pyrazino[2,1-d][1,5]benzoxazepine hydrochloride]
CLint scaled at 0.5 μM [1]: < 83.3 mL/min/kg
pEC50 [2]: 6.70 to 7.70
Emax [2]: > 70%
Selectivity over 5-HT2A [3]: +++ (>100)
Selectivity over 5-HT2B [4]: +++ (>100)

COC[C@@H]1C[C@@H]2CNCCN2c2c(F)c(F)c(OC)c(Cl)c2O1.Cl [Example 53, (4aR,6S)-8-Chloro-10,11-difluoro-9-methoxy-6-(methoxymethyl)-2,3,4,4a,5,6-hexahydro-1H-pyrazino[2,1-d][1,5]benzoxazepine hydrochloride]
CLint scaled at 0.5 μM [1]: 83.3 to 833 mL/min/kg
pEC50 [2]: 6.70 to 7.70
Emax [2]: 50 to 70%
Selectivity over 5-HT2A [3]: +++ (>100)
Selectivity over 5-HT2B [4]: +++ (>100)

C#Cc1cc(F)c(F)c2c1O[C@H](COC)C[C@@H]1CNCCN21.Cl [Example 40, (4aR,6S)-8-Ethynyl-10,11-difluoro-6-(methoxymethyl)-2,3,4,4a,5,6-hexahydro-1H-pyrazino[2,1-d][1,5]benzoxazepine hydrochloride]
CLint scaled at 0.5 μM [1]: < 83.3 mL/min/kg
pEC50 [2]: > 7.70
Emax [2]: > 70%
Selectivity over 5-HT2A [3]: +++ (>100)
Selectivity over 5-HT2B [4]: + (from 10 to 30)

COC[C@@H]1C[C@@H]2CNCCN2c2cc(F)cc(C#N)c2O1.Cl [Example 13, (4aR,6S)-10-Fluoro-6-(methoxymethyl)-2,3,4,4a,5,6-hexahydro-1H-pyrazino[2,1-d][1,5]benzoxazepine-8-carbonitrile hydrochloride]
CLint scaled at 0.5 μM [1]: < 83.3 mL/min/kg
pEC50 [2]: 6.70 to 7.70
Emax [2]: > 70%
Selectivity over 5-HT2A [3]: +++ (>100)
Selectivity over 5-HT2B [4]: ++ (from >30 to 100)
